| melting point | Structure (SMILES) |
| --- | --- |
| 141 to 142 °C | Cc1cc(C(=O)CC(O)(c2cc(Cl)cc(Cl)c2)C(F)(F)F)ccc1Br (configuration not stated) |
| 127 to 129 °C | Cc1c(-c2cccnc2)n(Cc2ccc(C#N)cc2)c2ccccc12 |
| 262 to 263 °C | COc1ccc(Nc2nc(-c3ccccc3)c(-c3nc4ccccc4c(=O)n3-c3ccc(Cl)cc3)s2)cc1 |
| 157 to 158 °C | O=C(O)C(=O)c1c(F)cc(OCCOc2ccc3ccccc3c2)cc1F |
| 121 °C | Oc1ccccc1-c1noc2ccsc12 |
| 174 to 175 °C | CCOC(=O)c1ccc(-c2nnc(-c3ccccc3N)o2)cc1 |
| 159 to 160 °C | CCCCc1nc2c(N)nc3ccccc3c2n1NCc1ccccc1 |
| 58 °C | O=C(c1ccccc1)c1ccc(OCCCCCCBr)c(Cl)c1 |
| 133 to 135 °C | COc1cc2c(cc1Nc1ncc(C(F)(F)F)c(N[C@H]3[C@@H](C(N)=O)[C@@H]4C=C[C@H]3C4)n1)CCN(CC(=O)N(C)C)CC2 |
| 98 to 99 °C | CC(C)NC(=O)C1c2cc(NC(=O)c3cc(C(F)(F)F)nn3-c3ncccc3Cl)c(Cl)cc2CC1F (configuration not stated) |
| 202 to 203 °C | CNC(=O)c1cc(C(=O)OC)cc(C(=O)NC)n1 |
| 177 to 179 °C | Cc1c(-c2cccnc2)n(CCCCc2nnn[nH]2)c2ccccc12 |
| 128 to 130 °C | Cc1c(F)cccc1NS(=O)(=O)c1cc(S(=O)(=O)Nc2cccc(F)c2C)c2cc(O)ccc2c1 |
| 161 to 163 °C | Cn1c(C(F)(F)F)cc(Cl)c(-c2ccc(Cl)c(NS(C)(=O)=O)c2)c1=O |
| 258 to 261 °C | CCCc1nc2cc3c(cc2[nH]1)NC(=O)C3(C)C(=O)OCC (configuration not stated) |
| 121 to 122 °C | COC(=O)c1cccc(-c2nc(-c3ccc(F)cc3F)cs2)c1 |
| 181 to 182 °C | CCCc1c(OCCCCc2ccc3c(Cl)c(OC)c(OC)c(Cl)c3c2)ccc(C(=O)O)c1O |
| 169 to 171 °C | NC(=O)c1cccc(NS(=O)(=O)c2cc(S(=O)(=O)Nc3cccc(C(N)=O)c3)c3cc(O)ccc3c2)c1 |
| 152 to 154 °C | CC(CN1CCN(c2ccc(C(=O)O)cc2)CC1)Oc1ccccc1 (configuration not stated) |
| 210 to 215 °C | COc1nc(Cl)ccc1C(=O)O |
| 192 to 193 °C | CCOC(=O)N1CC2CCN(c3c(F)cc4c(=O)c(C(=O)O)cn(C5CC5)c4c3F)C2C1 (configuration not stated) |
| 172 to 174 °C | O=[N+]([O-])C=C1NCCCN1Cc1ccc(Cl)cc1 |
| 275 to 278 °C | O=C(O)Cn1c2ccccc2c2sccc(=O)c21 |
| 151 to 152 °C | CC(=O)Nc1ccccc1OC(CCc1ccc(Cl)cc1)Cn1ccnc1 (configuration not stated) |

| melting point | Structure (SMILES) |
| --- | --- |
| 229 to 230 °C | CC1CN(c2ccc(NC=C3C(=O)NC(=O)c4ccc(Br)cc43)cc2)CC(C)N1 (configuration not stated) |
| 155 to 157 °C | Cn1c(C(F)(F)F)ccc(-c2cc(N)c(Cl)cc2F)c1=O |
| 200 to 202 °C | C#CCN1C(=O)CCc2cc(F)c(-n3nc4ccc(Cl)cn4c3=O)cc21 |
| 135 to 138 °C | CN(C)CCNc1c2c(nc3ccccc13)CCCC2O (configuration not stated) |
| 201 to 202 °C | Nc1ccc(Oc2ccc3c(c2)OCC(=O)N3)cc1 |
| 171 to 172 °C | COc1cc(C)c(C(=O)c2ccc(OCc3nc(-c4ccccc4)oc3C)cc2)c(O)c1 |
| 98 to 100 °C | O=C(N[C@@H]1C(=O)N[C@@H]1CO)OCc1ccccc1 |
| 214 to 217 °C | COc1cccc2c1nc(C(F)F)n2-c1nc(N2CCOCC2)nc(N(C)c2cncnc2)n1 |
| 192 to 194 °C | Clc1cc2c3c(c1)C(c1ccccc1)Nc1ccccc1N3CC2 (configuration not stated) |
| 85 to 85.5 °C | COCCOc1ccc(/C=C/C(=O)NS(=O)(=O)NCCc2ccccc2)c(Oc2ncc(C(F)(F)F)cc2Cl)c1 |
| 175 to 177 °C | COc1cc(C)nc(NC(=O)NS(=O)(=O)c2cccc3c2NC(C)C3)n1 (configuration not stated) |
| 174 to 176 °C | CCOc1ccc(-c2ccc3c(c2)C=C(C(=O)Nc2ccc(CN(C)C4CCOCC4)cc2)CCO3)cc1 |
| 86 to 90 °C | C[C@]12CC[C@]3(C)C(O)CC[C@H]3[C@@H]1CCC1=C2CC=C(O)C1 (some centres not stated) |
| 246 °C | Cc1cc(-c2ncn3c(C(F)(F)F)cc(-c4ccc(Cl)c(C)c4)nc23)ccn1 |
| 89 to 91 °C | COc1ccc(C(O)Cc2nccnc2C)cc1 (configuration not stated) |
| 82 to 84 °C | CCOC(=O)CC(=O)Cn1nc(CC)c(Oc2cc(Cl)cc(Cl)c2)c1CC |
| 143 to 144 °C | O=c1cc(-c2cc[nH]n2)oc2ccccc12 |
| 104 to 105 °C | O=C(c1ccccc1)N1CCN(c2cncc(Cl)n2)CC1 |
| 134 °C | CCOC(=O)c1c(N2CCN(C(=O)c3cccs3)CC2)c2cccnc2n(CCN(C)C)c1=O |
| 245 to 251 °C | COc1c(Cl)cc(-c2ccc(=O)[nH]n2)cc1Cl |
| 140 to 142 °C | COc1ccc(Cn2nnnc2C(=O)Nc2cc(OCCCOc3ccc(C(C)=O)c(O)c3CCC(F)(F)F)c(Br)cc2C)cc1 |
| 195 °C | Cc1ccc(-c2nccc3c(CO)cccc23)cc1 |
| 133 to 134 °C | COc1ccc(N2CCN(C(=O)CC3CCCc4ccccc43)CC2)cc1 (configuration not stated) |
| 206 to 208 °C | COc1cc(OC)c2c(=O)[nH]c(-c3ccc(CN4CCOCC4)cc3)nc2c1 |

| melting point | Structure (SMILES) |
| --- | --- |
| 211 to 212 °C | CSc1nc(-c2ccc(S(C)(=O)=O)cc2)n(-c2ccc(C(C)C)cc2)c(=O)c1C#N |
| 105 to 106 °C | CC(C)(C)c1cc(-c2nn(CC(F)(F)C(F)F)c3ncccc23)cc(C(C)(C)C)c1O |
| 82 to 84 °C | COC(=O)CC(=O)c1cc(C(=O)OC)cc(-n2cccc2)c1 |
| 161 to 163 °C | CCN1COc2cc3c(=O)n(CCc4cccc(F)c4)nnc3cc2C1=O |
| 75 to 79 °C | O=C1c2ccccc2OCC1SC(=O)C(F)(F)F (configuration not stated) |
| 153 to 154 °C | CCOCCNCc1ccc(C(=O)Nc2nc(-c3ccccc3)c(-c3ccc(=O)n(C(C)C)n3)s2)cc1 |
| 148 to 149 °C | CC(C)(C)OC(=O)CCc1cccc(-c2nc(=O)c3ccc(C(F)(F)F)cc3s2)n1 |
| 174 °C | CC(C)(OCc1cc2nc(Cl)ccc2n1S(=O)(=O)c1cccc(Cl)c1Cl)C(=O)O |
| 71 to 73 °C | CC(CN1CCOCC1)C(=O)c1ccc(C(C)(C)C)cc1 (configuration not stated) |
| 118 °C | COc1ccccc1NC(C#N)c1c(Cl)cccc1Cl (configuration not stated) |
| 146 to 148 °C | Nc1cc(Br)cnc1CCCCNc1ncc(Cc2ccc(F)cc2)c(=O)[nH]1 |
| 211 to 213 °C | CS(=O)(=O)c1ccc(-c2cnn(-c3cccc(Cl)c3)c(=O)c2Oc2ccc(F)cc2)cc1 |
| 111 to 112 °C | CCOc1nc2c(nc1C(=O)N1CCN(C)CC1)c(C)nn2CC |
| 93 to 95 °C | Cc1cc(F)ccc1NC(=O)OC(C)(C)C |
| 156 to 164 °C | CS(=O)(=O)NNc1ccnc2c(NC(=O)c3c(Cl)cccc3Cl)cccc12 |
| 120 °C | COC(=O)c1ccc(OC)c(NC(=NCl)c2ccccc2)c1 |
| 72 to 75 °C | CCOc1cc(OC)cc(OP(=O)(O)O)c1C(=O)C=Cc1ccc(OC)cc1 |
| 140 to 141 °C | Cc1nc(N2CCCC(Cc3cccnc3)C2=O)sc1C(=O)NCc1ccccc1 (configuration not stated) |
| 158 to 160 °C | O=[N+]([O-])c1cccc(-c2nc(Nc3ccccc3)cc3cccnc23)c1 |
| 181 to 182 °C | N#CC1CCc2c([nH]c3ccc(Cl)cc23)C1 (configuration not stated) |
| 169 to 170 °C | CCC1(CCCCN2CCN(c3cccc4c3OCCO4)CC2)C(=O)Nc2ccccc21 (configuration not stated) |
| 132 to 134 °C | CC(C)[C@H](NC(=O)[C@@H]1CCCN1C(=O)OCc1ccccc1)C(=O)O |
| 173 to 174 °C | CC1OC(n2cc(F)c(NC(=O)c3ccoc3)nc2=O)C(O)C1O (configuration not stated) |
| 127 to 129 °C | COc1cc(=O)n(-c2cccc(C(F)(F)F)c2)nc1C(=O)N(C)OC |

| melting point | Structure (SMILES) |
| --- | --- |
| 139 to 143 °C | O=C1CN(NC(=O)NC(C(=O)O)c2ccccc2)C(=O)N1 (configuration not stated) |
| 258 to 260 °C | CC(C)(CN)c1ccc(C(=O)Nc2cn3cc(-n4ccnc4)ccc3n2)cc1 |
| 99 to 101 °C | ClCc1nc(Cl)c2ccccc2n1 |
| 85 °C | O=C(O)CCc1ccc(CNC(=O)C2Cc3ccccc3N2S(=O)(=O)c2ccc(-c3cccc(C(F)(F)F)c3)cc2)cc1 (configuration not stated) |
| 40 °C | CSc1cnc2ccccc2c1 |
| 225 to 227 °C | Cn1cc(C2=C(c3cn(CCCS(C)(=O)=O)c4ccccc34)C(=O)NC2=O)c2ccccc21 |
| 107 to 109 °C | CC(C)(CCCSCCNS(=O)(=O)c1ccc(Cl)cc1)C(=O)O |
| 255 to 262 °C | Cc1cc2[nH]nnc2c(Br)c1C |
| > 300 °C | COc1ccc(-c2[nH]nc3c2C(=O)c2c(NC(=O)NNC(=O)c4ccccc4)cccc2-3)cc1 |
| 132 to 135 °C | C=Cc1cc(C)cc(C)c1C1=C(O)C2(CCN(OC)CC2)N(OC2CCCO2)C1=O (configuration not stated) |
| 139 to 141 °C | CN(C)C(=NCCN1CCC(C(=O)c2ccc(F)cc2)CC1)NC#N |
| > 228 °C | Cc1ccc([N+](=O)[O-])cc1Nc1ncc(-c2ccc(C#N)cc2)o1 |
| 91 to 94 °C | COc1ccc(CCCC(CCc2ccc(OC)cc2)C(=O)O)cc1 (configuration not stated) |
| 175 to 176 °C | COc1cc(C)c(O)c(C(=O)NCCc2ccc(N=C(N)c3cccs3)cc2)c1 |
| 143 to 145 °C | O=CNC1=NN(c2cccc(Cl)c2)CC1 |
| 136 to 137 °C | CC(=O)NCC1CC(c2ccc(F)c(F)c2)=NO1 (configuration not stated) |
| 131 to 133 °C | CNC(=O)CC1(C)OCCn2c1c(C)c1ccccc12 (configuration not stated) |
| 135 to 137 °C | Cc1ccc(C(=O)Nc2c[nH]nc2C(=O)NCCC#N)o1 |
| 134 to 135 °C | C=CCc1nc(CC)n2nc(-c3cc(I)cnc3OCCCC)[nH]c(=O)c12 |
| 97 to 100 °C | C=C(C)COc1ccc(C(=O)C=Cc2cccc(OC)c2)c(O)c1 |
| 115 to 116 °C | COC(=O)C1=C(C)NC(C)=C(C(=O)OCCN2CC=C(c3ccccc3)CC2)C1c1cccc([N+](=O)[O-])c1 (configuration not stated) |
| 159 to 160 °C | CC(C)(CC/C=C\[C@@H]1C[C@@H](NS(=O)(=O)c2ccc(Cl)cc2)CN1S(=O)(=O)c1ccc(Cl)cc1)C(=O)O |

| Structure (SMILES) | melting point |
| --- | --- |
| N#Cc1ccc(CCl)cn1 | 45 to 47 °C |
| CC12CC(N3CCCCC3)CCC1CCC1C2CCC2(C)C(O)C(N3CCCCC3)CC12 (configuration not stated) | 176 to 181 °C |
| CN(C)C1(c2ccccc2)CCC(=CC(=O)NCCc2ccccc2)CC1 (configuration not stated) | 153 to 155 °C |
